Experimental data: patent US20110160303A1, “N-ALKYLCARBONYL-AMINO ACID ESTER AND N-ALKYLCARBONYL-AMINO LACTONE COMPOUNDS AND THEIR USE” (Edward Tak WEI, priority 2005, published 2011)
“Also recorded” adds a separate entry of the source. Values belong to the compound of their own block, whether it stands above or below them.

Legend:
[1] = system: asthma; experiment: Study 10: adult-onset asthma, throat irritation and cough; format: in vivo, human
Procedure: A person had adult-onset asthma for 20 years. Triggers for attacks were tobacco smoke, dust, and changes in air temperature. They used Foradil® (formoterol fumarate) and Asmanex® (mometasone fuorate) twice a day to control their asthma, and monitored their pulmonary function with a portable device for measuring peak expiratory flow. They had daily episodes of both productive and non-productive cough. In 5 trials, when they felt throat irritation and a desire to cough, placement of 1 to 3 mg of (R)-2-[((1R,2S,5R)-2-isopropyl-5-methyl-cyclohexanecarbonyl)-amino]-propionic acid ethyl ester) provided rapid relief and was described as soothing and removed “tightness” in the chest. Peak expiratory flow improved from 320 L/min to 370 L/min. In 3 episodes where the test substance was administered in the midst of a productive cough spell, no significant effects were observed and the subject said that the applied compound had been expectorated. The subjective response to the long-acting NACE compound was definitely favourable. The subject remarked that the best time to use the NACE compound was after inhaling the crystalline Foradil® because this inhaled drug irritated their throat. Menthol lozenges were not effective for their airway discomfort because they only had mild anti-irritant actions and the sugar content of the lozenges interfered with their appetite for food.

[2] = system: skin above the upper lip; experiment: Cooling sensation on facial skin, ointment applied to skin above the upper lip; format: in vivo, human; design: key to refreshing cooling and absence of skin irritation or eye irritation (“perfect cool”): (*) denotes compounds with refreshing cooling and absence of skin irritation or eye irritation after facial skin or periorbital applications; a “perfect cool.”; conditions: for Duration of Skin Cooling: 40 mM (1% wt/vol) ointment; for Duration of Skin Cooling / Duration of Action On-Off (minutes): On (onset) / Duration of Action On-Off (minutes): duration (offset minus onset) / Duration of Action On-Off (minutes): Off (offset): skin above upper lip; for Duration of Action On-Off (minutes): On (onset): 40 mM (~1% wt/vol) Aquaphor ointment, 40 to 70 mg, time to reach 2 units of coolness; for Duration of Action On-Off (minutes): duration (offset minus onset) / Duration of Action On-Off (minutes): Off (offset): 40 mM Aquaphor ointment; for Duration of Action On-Off (minutes): Off (offset): time when coolness drops below 2 units
From the text: A reliable place for topical application is the skin above the upper lip (above the vermilion border of the lips), on the philtrum, lateral to the philtrum until the nasolabial folds, and on the lower nostrils (subnasale). This part of the face is known to be densely innervated with cold receptors, second only to the surfaces of the eyeball and anogenitalia. A second location is on or below the malar eminence (cheekbone). The skin above the cheekbone is thicker than above the lips, and therefore has a higher threshold for activation. At both loci, tingling, cool and cold sensations in the skin may be experienced and rated for time of onset and intensity.
The intensity of the subjective skin sensation is rated as 0, 1, 2 or 3 with: 0 as no change; 1 as slight coolness, cold, or tingling; 2 as clear-cut signal of coolness, cold, or tingling; and 3 as robust cooling or cold. The intervals for recording sensations are 5 to 10 minutes, until two successive zeroes are obtained. The results (shown in FIGS. 1 and 2) are averaged values of 4 to 6 separate trials in the same individual. The data are plotted using SigmaPlot® (Systat Software, Point Richmond Calif.) and a smoothing function with a negative exponential was used for analysis and statistical fit of the results. Confirmatory trials of cooling action of the long-acting NACE compounds were obtained in 2 to 4 individuals but not quantified for some because of the large number of chemicals that were evaluated.
(§1) The onset of drug action is taken as the time to reach 2 units of coolness intensity, and offset of drug action is the time when coolness intensity drops below 2, after previously surpassing 2 units. The duration of cooling action is defined as the offset time minus the onset time. […] The quality of the sensation is noted, for example, as pure refreshing coolness, or if the sensation is accompanied by irritation (stinging or burning). The quality of the sensation is not rated for intensity.
For bioassay on the skin, approximately 30 mg was stirred and dissolved in 3 g of warm liquid Aquaphor® ointment to a yield a 40 mM (˜1% wt/vol) ointment. The exact amount was adjusted so that the molar equivalent was about 35 to 40 mM. After cooling, 40 to 70 mg of the solid ointment was placed on the tip of a plastic stick and applied to the skin above the upper lip, on the philtrum, and lateral to the philtrum, up to the nasolabial folds, of test subjects and the onset and duration of cooling sensations noted.
The intensity of the subjective skin sensation was rated as 0, 1, 2 or 3 with: 0 as no change; 1 as slight coolness, cold, or tingling; 2 as clear signal of coolness, cold, or tingling; and 3 as robust cooling or cold. The intervals for recording sensations were 5 to 10 minutes, until two successive zeroes were obtained. The results (shown in FIGS. 1 and 2) are averaged values of 4 to 6 separate trials in the same individual. The data are plotted using SigmaPlot® (Systat Software, Point Richmond, Calif., USA) and a smoothing function with a negative exponential was used for analysis and statistical fit of the results.
as §1, with “was” for “is”, “was also noted: such” for “is noted, for example,”
Test compounds were singly applied to the skin above the upper lips at a 40 to 70 mg dose of a 1% wt/vol ointment.

[3] = system: oral cavity; experiment: Oral cavity test, substance placed on dorsal surface of the tongue; format: in vivo, human
Procedure: The subject is instructed to close and hold the substance in the mouth for at least 10 seconds and not to swallow. The description of sensations is then recorded at 5 minute intervals.
The compounds of Formula (1) and (2) are white crystalline solids at room temperatures. These compounds were tested as such, or mixed 1:1 with powdered or granulated sugar. The test substances were applied at 1 to 5 mg on the mid-point of the dorsal surface of the tongue using a metal spatula or a plastic applicator. After depositing the test substance on the tongue, the subject was instructed to keep the mouth closed and allow the fluids of the mouth to inter-mix with the test substance and to distribute it to the back of the mouth (oropharynx). The presence and duration of subjective sensations from the mouth was then noted.
In normal subjects, the effects of the D-Ala methyl and ethyl ester compounds falling within Formula (1) ((R)-2-[((1R,2S,5R)-2-isopropyl-5-methyl-cyclohexanecarbonyl)-amino]-propionic acid methyl or ethyl ester)) were examined. Three doses of 1, 2 and 4 mg per application were examined and compared to a similar dose of the L-Ala methyl or ester analog ((S)-2-[((1R,2S,5R)-2-isopropyl-5-methyl-cyclohexanecarbonyl)-amino]-propionic acid methyl or ethyl ester). At the 2 or 4 mg dose, all compounds produced pleasant and robust cooling sensations on the tongue, extending down to the back of throat, and lasted for about 30 minutes and longer. The onset effect was usually within 30 seconds of application.

[4] = system: periorbital skin; experiment: Irritancy near the eyes, ointment applied to periorbital skin; format: in vivo, human; conditions: Table 1 summary
From the text: The ointment is also applied to the periorbital skin (upper and lower eyelids and on skin adjacent to the lateral canthus) for tests of irritancy near the eyes, and the subject is asked if irritation is present or absent. The intensity of the eye sensation is not rated. For tests of irritancy near the eyes, the ointment was applied to the periorbital skin (upper and lower eyelids and on skin adjacent to the lateral canthus), and the subject asked if irritation is present or absent. The intensity of the eye sensation is not rated, but just noted as being present or absent.

[5] = system: tongue; conditions: Watson et al., filter paper on tongue, 6 subjects; cited from earlier work
[6] = system: cough; experiment: Study 8: cough in cigar smokers, powder on the tongue; format: in vivo, human
From the text: Two males, were inveterate cigar smokers consuming 3 to 5 cigars per day. They both had frequent bouts of dry, non-productive, hacking coughs. At night, there were episodes of insomnia characterized by difficulties in breathing, an oppressive pressure on the chest and throat, and subsequent awakening with sensations of choking. During the day, a frequent and persistent sensation was that of tickling, irritative feelings in the back of the throat that led to coughing.
In 20 trials, 10 trials per subject, two mg of 95%+pure powder of a D-Ala ethyl compound falling within Formula (1) (R)-2-[((1R,2S,5R)-2-isopropyl-5-methyl-cyclohexanecarbonyl)-amino]-propionic acid ethyl ester) was placed on the mid-portion of the tongue of these two subjects. Both subjects reported relief from the desire to cough within 1 minute after application. Sensations of robust coolness in the back of the throat was noted and lasted for about 30 minutes. Applications of similar amounts of powdered sugar were not effective, but the placebo could be clearly distinguished from the active compound because of the absence of cooling sensations.
After application of test substance, the absence of irritation and itching at the back of the throat (cough signals) lasted for about 4 to 5 hours and the individual was observed not to cough for 6 to 8 hours. […] This therapeutic effect occurred when the test substance no longer elicited cooling sensations in the oropharynx.

[7] = system: asthma cough; experiment: Study 9: asthmatic cough, powder on the tongue; format: in vivo, human; conditions: continued use
From the text: A person with a documented 31-year history of asthma attacks volunteered to test one of the compounds falling within Formula (1). They were extremely sensitive to agents such as tobacco smoke, dust, pollen, odors, down/woolen materials, house cleansing products, pets, and sudden change of air temperature, and reacted with violent coughing, mucus secretions, wheezing, choking, and shortness of breath. At the time of this trial, they were taking these medications for their condition: theophylline, Allegra®, Advair®, Intal®, and Singulair®. In 5 trials, during a coughing spree, they placed one to two mg of 95%+ pure powder of a D-Ala ethyl ester falling within Formula (1) ((R)-2-[((1R,2S,5R)-2-isopropyl-5-methyl-cyclohexanecarbonyl)-amino]-propionic acid ethyl ester)) on the mid-portion of their tongue. They reported a soothing and cool sensation with a slight taste similar to Eucalyptus oil in their mouth and throat. Coughing stopped after 3 to 5 minutes and breathing was normal. […] In three trials when the compound was applied at night, they slept through the night without being awakened by cough. Their spouse remarked that, in over 30 years of marriage, this was the first time that they had seen an effective medication for their cough. […]

[8] = system: tongue; experiment: Threshold for cooling on the tongue; format: in vivo, human; conditions: threshold for cooling on the tongue
Procedure: Watson et al. (U.S. Pat. No. 4,178,459) tested the properties of N-substituted p-menthane carboxamides on volunteers by putting filter paper (1×1 cm), impregnated with a known amount of compound, onto the dorsal surface of the tongue of the test subject. After 30 seconds, the subject was required to report presence or absence of a cooling effect. […] The average threshold of (−)-menthol for 6 subjects was 0.25 μg, but there was a 100-fold variation in individual sensitivity. As noted above, coolness signals detected from the dorsal surface of the tongue may be confounded by gustatory, olfactory, and other variables, as well as by dilution from saliva. The octanol/water partition coefficients (given in log P units) for a number of compounds were determined and are shown in Table 7, together with the threshold for cooling on the tongue tested at 40 mM. […] A longer duration of action was not precisely matched with log P values.

[9] = Octanol/water partition coefficient; format: physicochemical
Procedure: The octanol/water partition coefficients (given in log P units) for a number of compounds were determined and are shown in Table 7, together with the threshold for cooling on the tongue tested at 40 mM. […] A longer duration of action was not precisely matched with log P values.

[10] = molecular target: T1, TRP-M8 (Homo sapiens, UniProt Q7Z2W7); conditions: cited from earlier work
T1 construct: expressed in transfected cells
T1 sequence (Q7Z2W7 whole entry, species assumed): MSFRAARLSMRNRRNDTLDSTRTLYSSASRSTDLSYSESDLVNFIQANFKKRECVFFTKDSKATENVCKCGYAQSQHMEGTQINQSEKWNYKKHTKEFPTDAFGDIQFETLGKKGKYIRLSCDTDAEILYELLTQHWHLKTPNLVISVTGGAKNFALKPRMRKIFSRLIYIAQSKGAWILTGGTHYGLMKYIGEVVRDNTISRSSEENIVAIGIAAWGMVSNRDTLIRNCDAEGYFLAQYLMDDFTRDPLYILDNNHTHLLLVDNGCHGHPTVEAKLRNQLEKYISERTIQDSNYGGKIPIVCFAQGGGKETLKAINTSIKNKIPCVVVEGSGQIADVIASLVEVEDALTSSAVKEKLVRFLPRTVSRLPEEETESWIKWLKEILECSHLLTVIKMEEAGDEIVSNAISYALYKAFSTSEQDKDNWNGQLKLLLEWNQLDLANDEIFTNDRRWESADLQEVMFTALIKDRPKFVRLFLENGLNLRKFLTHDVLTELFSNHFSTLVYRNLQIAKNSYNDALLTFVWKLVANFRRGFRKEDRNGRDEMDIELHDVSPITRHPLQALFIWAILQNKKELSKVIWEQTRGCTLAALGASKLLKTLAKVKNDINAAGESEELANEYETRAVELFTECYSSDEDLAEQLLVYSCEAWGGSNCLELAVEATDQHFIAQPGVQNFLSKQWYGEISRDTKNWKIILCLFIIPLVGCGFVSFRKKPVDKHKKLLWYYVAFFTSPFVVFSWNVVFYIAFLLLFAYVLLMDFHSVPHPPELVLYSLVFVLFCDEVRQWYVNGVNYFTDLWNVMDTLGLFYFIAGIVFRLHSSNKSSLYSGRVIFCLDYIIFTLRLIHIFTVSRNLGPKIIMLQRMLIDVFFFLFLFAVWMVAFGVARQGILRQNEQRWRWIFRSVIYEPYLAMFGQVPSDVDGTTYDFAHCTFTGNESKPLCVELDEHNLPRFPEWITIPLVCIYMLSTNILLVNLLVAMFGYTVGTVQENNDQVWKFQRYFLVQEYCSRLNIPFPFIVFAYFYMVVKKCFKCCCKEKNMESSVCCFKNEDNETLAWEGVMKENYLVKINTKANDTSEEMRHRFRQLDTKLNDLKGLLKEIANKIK

Structure (SMILES): CCOC(=O)[C@@H](C)NC(=O)[C@@H]1C[C@H](C)CC[C@H]1C(C)C [(R)-2-[((1R,2S,5R)-2-isopropyl-5-methyl-cyclohexanecarbonyl)-amino]-propionic acid ethyl ester]
Peak expiratory flow ([1]; 1 to 3 mg, improved from 320 L/min): 370 L/min
relief of throat irritation, desire to cough and airway discomfort ([1]; asthmatic): rapid relief

Structure (SMILES): CC(C)[C@@H]1CC[C@@H](C)C[C@H]1O [(−)-menthol, 1R-(1α-2β-5α)-5-methyl-2-(1-methylethyl)cyclohexanol, reference compound]
Duration of Skin Cooling [2]: 0.3 h
Acts for >1 hour at 40 mM ([2]; Table 1 summary): no
Cooling on skin of face ([2]; Table 1 summary): yes
“perfect” cooling experience ([2]; Table 1 summary): no
Cooling on tongue ([3]; Table 1 summary): yes
Eye Irritancy [4]: yes
average threshold for cooling on the tongue [5]: 0.25 µg

Structure (SMILES): CCOC(=O)[C@@H](C)NC(=O)[C@@H]1C[C@H](C)CC[C@H]1C(C)C [D-Ala Et Ester, (R)-2-[((1R,2S,5R)-2-isopropyl-5-methyl-cyclohexanecarbonyl)-amino]-propionic acid ethyl ester]
Duration of Skin Cooling [2]: 2.4 h
Duration of Action On-Off (minutes): On (onset) [2]: 1 min
Duration of Action On-Off (minutes): duration (offset minus onset) [2]: 142 min
Duration of Action On-Off (minutes): Off (offset) [2]: 143 min
refreshing cooling and absence of skin irritation or eye irritation (“perfect cool”) ([2]; after facial skin or periorbital applications): D-Ala Et Ester (*)
duration of cooling sensations on the tongue ([3]; dose of 1 to 2 mg, normal subjects): about 30 minutes
time the desire to cough was removed ([6]; after 4 or 6 applications within 2 days, continued smoking): at least 5 days
duration of robust coolness in the back of the throat ([6]; two mg powder on tongue): about 30 minutes
time to relief from the desire to cough ([6]; two mg powder on tongue, 20 trials in 2 subjects): ≤ 1 min
recurrence of asthmatic coughing attacks [7]: have not recurred with any severity for one month

logP [9]: 5.3
Structure (SMILES): COc1ccc(NC(=O)C2CC(C)CCC2C(C)C)cc1 (stereo not shown) [WS-12, N-p-methoxyphenyl-p-menthane-carboxamide, reference compound]
Duration of Action On-Off (minutes): On (onset) [2]: 13 min
Duration of Action On-Off (minutes): duration (offset minus onset) [2]: 25 min
Duration of Action On-Off (minutes): Off (offset) [2]: 38 min
Threshold tongue [8]: 0.2 µg
potency at TRP-M8 [10]: more potent at TRP-M8 than WS-5; also recorded: potent
